Assay results published in patent US8158628B2, “Sulfonylated 1,2,3,4-tetrahydropyrrolo[1,2-a]pyrazine compounds and their use as pharmaceuticals” (Gruenenthal GmbH, priority 2009, dated 2012).

Legend:
human B1R = biological target: T1, human B1R (Homo sapiens, UniProt P46663); experiment: FLIPR Ca2+ functional assay, B1R antagonism, human B1R in CHO K1 cells; type: cell-based; settings: test substance 10 μM; hB1R CHO K1 cells; agonist Lys-Des-Arg9 bradykinin at EC80; % of maximum achievable inhibition
T1 construct: expressed in transfected cells; host or cells: CHO K1 cells (Chinese hamster ovary), stably transfected
T1 sequence (P46663 1-353): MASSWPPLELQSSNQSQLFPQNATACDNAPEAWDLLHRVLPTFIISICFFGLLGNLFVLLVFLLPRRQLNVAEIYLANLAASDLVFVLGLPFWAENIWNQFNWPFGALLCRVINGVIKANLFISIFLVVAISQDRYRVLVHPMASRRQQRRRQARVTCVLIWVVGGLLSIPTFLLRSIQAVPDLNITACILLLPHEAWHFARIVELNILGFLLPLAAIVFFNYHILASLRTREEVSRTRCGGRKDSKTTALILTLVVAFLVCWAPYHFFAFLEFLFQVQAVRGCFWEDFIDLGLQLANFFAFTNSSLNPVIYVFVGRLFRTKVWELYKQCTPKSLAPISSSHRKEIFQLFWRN
Procedure: The agonistic or antagonistic action of substances on the bradykinin 1 receptor (B1R) of the human and rat species can be quantified with ectopically expressing cell lines (CHO K1 cells) and with the aid of a Ca^2+-sensitive dye (Fluo-4) using a fluorescent imaging plate reader (FLIPR). The value in % activation is based on the Ca^2+ signal after addition of Lys-Des-Arg^9 bradykinin (0.5 nM) or Des-Arg^9 bradykinin (100 nM). Antagonists lead to a suppression of the Ca^2+ influx following administration of the agonist. The % inhibition in comparison with the maximum achievable inhibition is indicated.
1. Functional Investigation on the Bradykinin 1 Receptor (B1R) The agonistic or antagonistic action of substances can be determined on the bradykinin 1 receptor (B1R) of the human and rat species with the following assay. According to this assay, the Ca^2+ inflow through the channel is quantified with the aid of a Ca^2+-sensitive dye (Fluo-4 type, Molecular Probes Europe BV, Leiden, Netherlands) in a fluorescent imaging plate reader (FLIPR, Molecular Devices, Sunnyvale, USA). 2. Method: Chinese hamster ovary cells (CHO K1 cells) which are stably transfected with the human B1R gene (hB1R cells) or the B1R gene of the rat (rB1R cells) are used. For functional investigations these cells are plated-out onto black 96-well plates with a clear base (BD Biosciences, Heidelberg, Germany or Greiner, Frickenhausen, Germany) in a density of 20,000-35,000 cells/well. Overnight the cells are incubated at 37° C. and 5% CO2 in culture medium (hB1R cells: Ham's Nutrient Mixture F12, Gibco Invitrogen GmbH, Karlsruhe, Germany or DMEM, Sigma-Aldrich, Taufkirchen, Germany; rB1R cells: D-MEM/F12, Gibco Invitrogen, Karlsruhe, Germany) with 10 vol. % FBS (foetal bovine serum, Gibco Invitrogen GmbH, Karlsruhe, Germany or PAN Biotech GmbH, Aidenbach, Germany).
On the following day the cells are loaded with 2.13 μM Fluo-4 (Molecular Probes Europe BV, Leiden, Netherlands) in HBSS buffer (Hank's buffered saline solution, Gibco Invitrogen GmbH, Karlsruhe, Germany) with 2.5 mM probenecid (Sigma-Aldrich, Taufkirchen, Germany) and 10 mM HEPES (Sigma-Aldrich, Taufkirchen, Germany) for 60 min at 37° C. The plates are subsequently washed twice with HBSS buffer, and HBSS buffer which additionally contains 0.1% BSA (bovine serum albumin; Sigma-Aldrich, Taufkirchen, Germany), 5.6 mM glucose and 0.05% gelatine (Merck KGaA, Darmstadt, Germany) is added. After a further incubation of 20 minutes at RT, the plates are inserted into the FLIPR for Ca^2+ measurement. Alternatively they are washed with buffer A (15 mM HEPES, 80 mM NaCl, 5 mM KCl, 1.2 mM CaCl2, 0.7 mM MgSO4, 2 g/l glucose, 2.5 mM probenecid) and loaded with buffer A with added 2.5 μM Fluo-4 and 0.025% Pluronic F127 (Sigma-Aldrich, Taufkirchen, Germany). The cells are then washed twice with buffer A and incubated for 30 minutes with buffer A, which additionally contains 0.05% BSA and 0.05% gelatine, at RT and then used for Ca^2+ measurement in the FLIPR. The Ca^2+-dependent fluorescence is measured here before and after addition of substances (λex=488 nm, λem=540 nm). The quantification is performed by measuring the highest fluorescence intensity (FC, fluorescence counts) over time.
The FLIPR protocol comprises two additions of substance. Test substances (10 μM) are first pipetted onto the cells and the Ca^2+ inflow is compared with the control (hB1R: Lys-Des-Arg^9 bradykinin >=50 nM; rB1R: Des-Arg^9 bradykinin 10 μM). The value in % activation based on the Ca^2+ signal after addition of Lys-Des-Arg^9 bradykinin (>=50 nM) or Des-Arg^9 bradykinin (10 μM) is obtained therefrom. After incubation for 10-20 minutes, Lys-Des-Arg^9 bradykinin (hB1R) or Des-Arg^9 bradykinin (rB1R) is applied in the EC80 concentration and the inflow of Ca^2+ is likewise determined.
Antagonists lead to a suppression of the Ca^2+ inflow. The % inhibition in comparison with the maximum achievable inhibition is calculated. […]

B1R of the rat = biological target: T2, B1R of the rat (Rattus norvegicus, UniProt P97583); experiment: FLIPR Ca2+ functional assay, B1R antagonism, rat B1R in CHO K1 cells; type: cell-based; settings: test substance 10 μM; rB1R CHO K1 cells; agonist Des-Arg9 bradykinin at EC80; % of maximum achievable inhibition
T2 construct: expressed in transfected cells; host or cells: CHO K1 cells (Chinese hamster ovary), stably transfected
T2 sequence (P97583 1-337): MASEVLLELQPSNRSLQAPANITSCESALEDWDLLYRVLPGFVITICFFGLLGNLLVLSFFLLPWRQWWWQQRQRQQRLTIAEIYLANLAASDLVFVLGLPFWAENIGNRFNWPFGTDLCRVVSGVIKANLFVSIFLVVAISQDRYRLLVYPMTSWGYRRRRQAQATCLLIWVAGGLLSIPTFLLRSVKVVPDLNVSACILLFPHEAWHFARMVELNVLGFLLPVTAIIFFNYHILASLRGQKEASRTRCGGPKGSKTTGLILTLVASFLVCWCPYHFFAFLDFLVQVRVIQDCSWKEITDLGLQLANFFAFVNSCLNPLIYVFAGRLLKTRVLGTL
In short: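 IC50 values come from varied compound concentrations applied 10-20 min before an EC80 agonist challenge, with Des-Arg9 bradykinin for rat and Lys-Des-Arg9 bradykinin for human receptor. Ca2+ influx in Fluo-4-loaded CHO K1 transfectants was measured by FLIPR peak fluorescence. Data are % inhibition vs maximum, n=2-3, N>=2.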

| SMILES | inhibition at 10 µM (human B1R) [%] | inhibition at 10 µM (B1R of the rat) [%] |
| --- | --- | --- |
| O=C(CC1c2cccn2CCN1S(=O)(=O)c1cccc(C(F)(F)F)c1)NC1CCc2cc(CN3CCCC3)ccc2C1 (stereo not drawn) [Example 84, N-[6-(Pyrrolidin-1-yl-methyl)-1,2,3,4-tetrahydro-naphthalen-2-yl]-2-[2-[[3-(trifluoromethyl)phenyl]sulfonyl]-1,2,3,4-tetrahydro-pyrrolo[1,2-a]pyrazin-1-yl]-acetamide] | 99.8 | 100 |
| O=C(CC1c2cccn2CCN1S(=O)(=O)c1cccc(C(F)(F)F)c1)NC1CCc2cc(CNCc3ccccc3)ccc2C1 (stereo not drawn) [Example 83, N-[6-[(Benzylamino)-methyl]-1,2,3,4-tetrahydro-naphthalen-2-yl]-2-[2-[[3-(trifluoromethyl)phenyl]sulfonyl]-1,2,3,4-tetrahydro-pyrrolo[1,2-a]pyrazin-1-yl]-acetamide] | 99.3 | 101 |
| Cc1ccc(S(=O)(=O)N2CCn3cccc3C2CC(=O)NC2CCCc3cc(CN4CCCc5ccccc54)ccc32)cc1Cl (stereo not drawn) [Example 119, 2-[2-[(3-Chloro-4-methyl-phenyl)sulfonyl]-1,2,3,4-tetrahydro-pyrrolo[1,2-a]pyrazin-1-yl]-N-[6-(1,2,3,4-tetrahydro-quinolin-1-yl-methyl)-1,2,3,4-tetrahydro-naphthalen-1-yl]-acetamide] | 23.4 | 62.2 |
| Cc1ccc(S(=O)(=O)N2CCn3cccc3C2CC(=O)N[C@@H]2CCCc3cc(CNC(C)(C)C)ccc32)cc1 (stereo partly drawn) [Example 42, N-[(1R)-6-[(tert-Butylamino)-methyl]-1,2,3,4-tetrahydro-naphthalen-1-yl]-2-[2-(p-tolylsulfonyl)-1,2,3,4-tetrahydro-pyrrolo[1,2-a]pyrazin-1-yl]-acetamide] | 99.9 | 107 |
| Cc1ccc(S(=O)(=O)N2CCn3cccc3C2CC(=O)NC2CCCc3cc(CN4CCN(C)CC4)ccc32)cc1Cl (stereo not drawn) [Example 55, 2-[2-[(3-Chloro-4-methyl-phenyl)sulfonyl]-1,2,3,4-tetrahydro-pyrrolo[1,2-a]pyrazin-1-yl]-N-[6-[(4-methyl-piperazin-1-yl)-methyl]-1,2,3,4-tetrahydro-naphthalen-1-yl]-acetamide] | 99.8 | 99.4 |
| Cc1ccc(S(=O)(=O)N2CCn3cccc3C2CC(=O)NC2CCCc3cc(CN4CCCc5ccccc54)ccc32)cc1 (stereo not drawn) [Example 129, 2-[2-(p-Tolylsulfonyl)-1,2,3,4-tetrahydro-pyrrolo[1,2-a]pyrazin-1-yl]-N-[6-(1,2,3,4-tetrahydro-quinolin-1-yl-methyl)-1,2,3,4-tetrahydro-naphthalen-1-yl]-acetamide] | 46.1 | 74.7 |
| Cc1ccc(S(=O)(=O)N2CCn3cccc3C2CC(=O)NC2CCc3cc(CN4C5CCCC4CC5)ccc3C2)cc1 (stereo not drawn) [Example 77, N-[6-(8-Azabicyclo[3.2.1]octan-8-yl-methyl)-1,2,3,4-tetrahydro-naphthalen-2-yl]-2-[2-(p-tolylsulfonyl)-1,2,3,4-tetrahydro-pyrrolo[1,2-a]pyrazin-1-yl]-acetamide] | 99.2 | 103 |
| CNCc1ccc2c(c1)CCC(NC(=O)CC1c3cccn3CCN1S(=O)(=O)c1cccc(C(F)(F)F)c1)C2 (stereo not drawn) [Example 139, N-[6-(Methylamino-methyl)-1,2,3,4-tetrahydro-naphthalen-2-yl]-2-[2-[[3-(trifluoromethyl)phenyl]sulfonyl]-1,2,3,4-tetrahydro-pyrrolo[1,2-a]pyrazin-1-yl]-acetamide] | 99.1 | 103 |
| O=C(CC1c2cccn2CCN1S(=O)(=O)c1cccc(C(F)(F)F)c1)NC1CCCc2cc(CN3C4CCCC3CC4)ccc21 (stereo not drawn) [Example 109, N-[6-(8-Azabicyclo[3.2.1]octan-8-yl-methyl)-1,2,3,4-tetrahydro-naphthalen-1-yl]-2-[2-[[3-(trifluoromethyl)phenyl]sulfonyl]-1,2,3,4-tetrahydro-pyrrolo[1,2-a]pyrazin-1-yl]-acetamide] | 99.8 | 99.8 |
